Drawing on US20040106802A1, “Novel compounds and therapeutic uses thereof” (TORRENT PHARMACEUTICALS LTD., priority 2002, published 2004), this text covers IC50 for 31 compounds.

Usually IC50 stands for the point on the concentration scale where inhibition reaches its midpoint.

Structures can show the parent of a compound that is named as a salt.

T1 sequence (P22411 whole entry): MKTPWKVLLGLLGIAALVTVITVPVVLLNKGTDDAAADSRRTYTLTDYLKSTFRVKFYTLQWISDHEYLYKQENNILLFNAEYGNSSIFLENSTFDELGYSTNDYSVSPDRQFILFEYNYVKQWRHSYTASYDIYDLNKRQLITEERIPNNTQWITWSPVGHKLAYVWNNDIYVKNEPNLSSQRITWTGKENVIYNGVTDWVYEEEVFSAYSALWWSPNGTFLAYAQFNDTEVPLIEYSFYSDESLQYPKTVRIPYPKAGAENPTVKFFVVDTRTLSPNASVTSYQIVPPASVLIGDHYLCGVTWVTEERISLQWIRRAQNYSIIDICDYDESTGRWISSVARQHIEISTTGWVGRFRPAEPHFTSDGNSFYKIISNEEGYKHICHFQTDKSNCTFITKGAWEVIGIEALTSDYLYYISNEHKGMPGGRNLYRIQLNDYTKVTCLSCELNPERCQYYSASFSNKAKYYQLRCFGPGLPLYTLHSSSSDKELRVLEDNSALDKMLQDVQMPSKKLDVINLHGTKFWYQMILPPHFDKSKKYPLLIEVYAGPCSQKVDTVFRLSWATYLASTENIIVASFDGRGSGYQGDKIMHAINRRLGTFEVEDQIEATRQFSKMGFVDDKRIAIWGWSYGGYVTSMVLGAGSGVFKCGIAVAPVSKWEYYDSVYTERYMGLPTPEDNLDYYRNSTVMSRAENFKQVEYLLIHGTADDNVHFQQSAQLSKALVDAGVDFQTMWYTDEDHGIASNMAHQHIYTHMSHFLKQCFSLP

The assay addresses T1, Porcine DPP-IV (Sus scrofa, UniProt P22411).
T1 construct: purchased Sigma-Aldrich Germany
The assay is described as follows: Assay of DPP-IV enzyme inhibitory activity (spectrophotometric, Gly-Pro-pNA cleavage). The assay is classed as biochemical. As to conditions: Porcine DPP-IV, Gly-Pro-pNA substrate, 30° C.; mean ± SD of three experiments except compound Nos. 133 & 139; read-out: IC50 (μM) Mean ± SD, inhibitory activity on DPP-IV enzyme activity. How it is done: Assay of DPP-IV Enzyme Inhibitory Activity.
The assay method is a modified method (as described by Welch et al, 1998) based on spectrophotometric determination of the product formed by penultimate proline cleaving activity of the enzyme.
Assay protocol involves incubation of the enzyme dipeptidyl peptidase IV with the test substance at 30° C. for 30 min followed by addition of this reaction mixture to the substrate Gly-Pro-pNA that was equilibrated at 30° C. for 2 min. The enzyme cleaves the substrate at penultimate proline and releases p-nitroanilide, the optical density of which is measured at 385 nm. The formation of p-nitroanilide will be reduced in the presence of inhibitor. […] The activity of molecule is expressed in terms of % inhibition. At least three different concentrations were tried out for each of the test substances. The percentage inhibitions for each of the concentrations were plotted and an IC50 of the test compound was worked out. The enzyme inhibitory activity of different test compounds were compared based on the IC50 values.
The percentage inhibition % I, is calculated using the formula:
% I=[(1−vi/v0)]*100 where vi and v0 are the Vmax values with and without the test substance, respectively.
Substrate solution: 0.5 mM in 45 mM phosphate buffer
Substrate used: Gly-Pro-p-nitroanilide (Source: Sigma-Aldrich Co. Germany)
3.288 mg substrate in 1 ml 45 mM phosphate buffer was prepared as stock solution. 0.25 ml of this stock solution was diluted to 5 ml to get 0.5 mM substrate solution (90 μl to be added in each well). The stock solution of the substrate was used within three days of preparation.
Enzyme solution: Porcine DPP-IV (Sigma-Aldrich Germany) was used throughout the study. 0.4 mU in 80 μl of Tris. HCl buffer was prepared. Fresh solutions were prepared everyday for the assays.
Various concentrations of inhibitor were used: 0.391 μM, 0.781 μM, and 3.125 μM. Solutions of inhibitor were prepared and used on the same day.
280 μl of enzyme solution (0.4-mU/80 μl in Tris HCl buffer) was added to the eppendorf containing 70 μl solution of inhibitor or vehicle and mixed. This reaction mixture was incubated for 30 min at 30° C. The 96 well plate containing substrate solution was thermally equilibrated in the spectrophotometer for 2 min at 30° C. Later 100 μl of the enzyme-inhibitor pre-incubation solution was added to respective wells in a 96 well plate. Each concentration of the inhibitor was tested in triplicates.
The rate of change in UV absorbance (in presence of various concentrations of the inhibitor) was measured at 385 nm, with respect to wells containing only 0.5 mM substrate in 45 mM phosphate buffer as blank at every 10 min for 2 hours after adding enzyme-inhibitor mixture to wells containing substrate solution.
Regarding `N#CC1CSCN1C(=O)CN(N)C1CCN(CC(=O)NCc2ccccc2F)CC1` (stereo not shown) [compound 122, 3-[1-oxo-2-(1-(1-(2-oxo-2-(2-flurobenzyl)aminoethyl)piperidine-4-yl))hydrazino]ethyl-4-cyanothiazolidine, bis-trifluoroacetate], the IC50 was 0.51 ± 0.05 µM.
On to `CCCC1CCC(N(N)CC(=O)N2CSCC2C#N)CC1` (stereo not shown) [Compound No. 64, 3-[1-Oxo-2-(1-(4-npropylcyclohexyl)hydrazino)]ethyl-4-cyanothiazolidine trifluoroacetate], for which the IC50 was 0.34 ± 0.07 µM.
The same measure for `N#CC1CCCN1C(=O)CN(N)c1ccccc1` (stereo not shown) [Compound No. 3, 1-[1-Oxo-2-((1-phenyl)-hydrazino)] ethyl-2-cyano pyrrolidine trifluoroacetate]: 34.1 ± 4.57 µM.
The same measure for `N#CC1CSCN1C(=O)CN(N)C1CCN(CC(=O)NC2CCCCC2)CC1` (stereo not shown) [compound 125, 3-[1-oxo-2-(1-(1-(2-oxo-2-cyclohexyl)aminoethyl)piperidin-4-yl)hydrazino]ethyl-4-cyanothiazoline, bis-trifluoroacetate]: 0.506 ± 0.06 µM.
Next, `N#CC1CSCN1C(=O)CN(N)C1CCN(CCC(=O)NC2CC2)CC1` (stereo not shown) [compound 132]: 1.77 ± 0.167 µM; `CC(C)OCCCNC(=O)CN1CCC(N(N)CC(=O)N2CSCC2C#N)CC1` (stereo not shown) [compound 126]: 0.468 ± 0.005 µM; `CC1CCC(N(CC(=O)N2CSCC2C#N)NC2CCN(C(C)C)CC2)CC1` (stereo not shown) [Compound No. 54, 3-[1-Oxo-2-[1-(4-methylcyclohexyl)-2-(1-isopropyl-4-piperidinyl)]hydrazino]ethyl-4-cyanothiazolidine]: 6.43 ± 0.15 µM.
Regarding `CCC(C)N(N)CC(=O)N1CSCC1C#N` (stereo not shown) [Compound No. 23, 3-[1-Oxo-2-((1-methylpropyl)hydrazino)]ethyl-4-cyano thiazolidine trifluoroacetate], the IC50 was 2.94 ± 0.15 µM.
Next, `CC(C)N1CCC(N(N)CC(=O)N2CSCC2C#N)CC1` (stereo not shown) [Compound No. 51, 3-[1-Oxo-2-(1-isopropyl-4-piperidinyl) hydrazino)]ethyl-4-cyano thiazolidine trifluoroacetate]: 3.5 ± 0.06 µM; `N#CC1CSCN1C(=O)CN(N)C1CCN(C(=O)c2cccc(Cl)c2Cl)CC1` (stereo not shown) [Compound No. 70, 3-[1-Oxo-2-(1-(1-(2,3-dichlorophenylcarbonyl)-piperidin-4-yl) hydrazino)]ethyl-4-cyanothiazolidine trifluoroacetate]: 1.79 ± 0.12 µM.
With `N#CC1CSCN1C(=O)CN(N)C1CCC(NC(=O)c2ccc(F)cc2)CC1.O=C(O)C(F)(F)F` (stereo not shown) [Compound No. 100, 3-[1-oxo-2-[1-(4-fluorobenzoyl)aminocyclohexan-4-yl)]hydrazino]ethyl-4-cyanothiazolidine trifluoroacetate], the IC50 was 0.93 ± 0.015 µM.
Regarding `CC1CCC(N(CC(=O)N2CSCC2C#N)NC(C)C)CC1` (stereo not shown) [Compound No. 44, 3-[1-Oxo-2-(1-(4-methylcyclohexyl)-2-isopropyl)hydrazino]ethyl-4-cyanothiazolidine trifluoroacetate], the IC50 stood at 2.86 ± 0.18 µM.
As to `COCCNC(=O)CN1CCC(N(N)CC(=O)N2CSCC2C#N)CC1` (stereo not shown) [compound 135, 3-[1-oxo-2-(1-(1-(2-oxo-2-(2-methoxyethyl)aminoethyl)piperidin-4-yl))hydrazino]ethyl-4-cyanothiazolidine, bis-trifluoroacetate], the IC50 is 1.03 ± 0.035 µM.
The same measure for `CC(C)CN(N)CC(=O)N1CCCC1C#N` (stereo not shown) [Compound No. 10, 1-[1-Oxo-2-(1-(2-methylpropyl)hydrazino)]ethyl-2-cyano pyrrolidine trifluoroacetate]: 69.8 ± 17.5 µM; for `CCN(CC)NCC(=O)N1CSCC1C#N` (stereo not shown) [Compound No. 13, 1-[1-Oxo-2-((2,2-diethyl)-hydrazino)]ethyl-2-cyano thiazolidine]: 57.1 ± 3.76 µM; for `N#CC1CSCN1C(=O)CN(N)C1CCC(NCC(=O)Nc2ccc(Cl)cc2)CC1` (stereo not shown) [Compound No. 113, 3-[1-oxo-2-[1-(4-(2-oxo-2-(4-chlorophenyl)aminoethyl)aminocyclohex-1-yl)]hydrazino]ethyl-4-cyanothiazolidine bis-trifluoroacetate]: 1.06 ± 0.3 µM.
Next, `CC1CCC(N(CC(=O)N2CSCC2C#N)NC2CCN(Cc3cccnc3)CC2)CC1` (stereo not shown) [Compound No. 53, 3-[1-Oxo-2-[1-(4-methylcyclohexyl)-2-(1-(3-pyridinylmethyl)-4-piperidinyl)]hydrazino]ethyl-4-cyanothiazolidine]: 16.7 ± 2.07 µM; `CC1CCC(C(=O)N2CCC(N(N)CC(=O)N3CSCC3C#N)CC2)CC1` (stereo not shown) [Compound No. 65, 3-[1-Oxo-2-[1-(1-(4-methylcyclohexylcarbonyl)-piperidin-4-yl)]hydrazino]ethyl-4-cyanothiazolidine trifluoroacetate]: 0.87 ± 0.06 µM.
Next, `CC(C)N(N)CC(=O)N1CCCC1C#N` (stereo not shown) [Compound No. 41, 1-[1-Oxo-2-isopropyl-2-hydrazino]ethyl-2-cyano pyrrolidine trifluoroacetate]: 48.3 ± 1.75 µM; `N#CC1CSCN1C(=O)CN(N)C1CCN(c2ccc(C(F)(F)F)cn2)CC1` (stereo not shown) [Compound No. 77, 3-[1-Oxo-2-(1-(1-(5-trifluoromethyl-2-pyridinyl)-piperidin-4-yl) hydrazino)]ethyl-4-cyano thiazolidine bis trifluoroacetate]: 0.67 ± 0.06 µM.
For the compound `CN(CC(=O)N1CSCC1C#N)NC1CCN(S(=O)(=O)c2ccc(Cl)cc2)CC1` (stereo not shown) [Compound No. 71, 3-[1-Oxo-2-[1-methyl-2-(1-(4-chlorophenylsulphonyl)-piperidin-4-yl)]-hydrazino]ethyl-4-cyanothiazolidine], the IC50 came to 86.2 ± 5.3 µM.
For the compound `N#CC1CSCN1C(=O)CN(N)C1CCN(CC(=O)Nc2nc3ccccc3s2)CC1` (stereo not shown) [compound 138], the IC50 is 0.104 ± 0.009 µM.
Next, `N#CC1CSCN1C(=O)CN(N)Cc1ccc([N+](=O)[O-])cc1` (stereo not shown) [Compound No. 17, 3-[1-Oxo-2-((1-(4-nitrophenylmethyl))hydrazino)]ethyl-4-cyano thiazolidine trifluoroacetate]: 35.8 ± 1.03 µM; `Cc1ccc(S(=O)(=O)N2CCC(NN(C)CC(=O)N3CSCC3C#N)CC2)cc1` (stereo not shown) [Compound No. 56, 3-[1-Oxo-2-[1-methyl-2-(1-(4-methylphenylsulphonyl)-piperidin-4-yl)]hydrazino]ethyl-4-cyanothiazolidine trifluoroacetate]: 44.2 ± 1.36 µM.
For `Cc1ccc(S(=O)(=O)N2CCC(N(N)CC(=O)N3CSCC3C#N)CC2)cc1` (stereo not shown) [Compound No. 55, 3-[1-Oxo-2-(1-(1-(4-methylphenylsulphonyl)-4-piperidinyl)-hydrazino)]ethyl-4-cyanothiazolidine trifluoroacetate], the IC50 was determined as 2.7 ± 0.16 µM.
Regarding `CC(C)N(N)CC(=O)N1CCCC1C#N` (stereo not shown) [Compound No. 12, 1-[1-Oxo-2-((1-(1-methyl)ethyl)hydrazino)]ethyl-2-cyano pyrrolidine trifluoroacetate], the IC50 was found to be 61.3 ± 4.55 µM.
With `N#CC1CSCN1C(=O)CN(N)C1CCN(CC(=O)Nc2ccc(F)c(Cl)c2)CC1` (stereo not shown) [compound 128, 3-[1-oxo-2-(1-(1-(2-oxo-2-(3-chloro-4-fluoro-phenyl)aminoethyl)piperidine-4-yl))hydrazino]ethyl-4-cyanothiazolidine, bis-trifluoroacetate], the IC50 worked out at 0.342 ± 0.035 µM.
Next, `CN(CC(=O)N1CSCC1C#N)NC1CCN(Cc2ccc(C#N)cc2)CC1` (stereo not shown) [Compound No. 58, 3-[1-Oxo-2-[1-methyl-2-(1-(4-cyanophenylmethyl)piperidin-4-yl)]hydrazino]ethyl-4-cyanothiazolidine bis trifluoroacetate]: 17.1 ± 0.3 µM.
Next, `CC(C)NN(CC(=O)N1CSCC1C#N)C1CCCCC1` (stereo not shown) [Compound No. 36, 3-[1-Oxo-2-(1-cyclohexyl-2-isopropyl) hydrazino]ethyl-4-cyanothiazolidine hydrochloride]: 23.3 ± 2.54 µM.
Next, `CC1CCC(NNCC(=O)N2CCCC2C#N)CC1` (stereo not shown) [Compound No. 26, 1-[1-Oxo-2-((4-Methyl)cyclohexyl)hydrazino)]ethyl-2-cyano pyrrolidine trifluoroacetate]: 10 ± 0.79 µM; `CC(C)(C)C(=O)N1CCC(N(N)CC(=O)N2CSCC2C#N)CC1` (stereo not shown) [Compound No. 76, 3-[1-Oxo-2-(1-(1-(tert-butylcarbonyl)-piperidin-4-yl) hydrazino)]ethyl-4-cyanothiazolidine trifluoroacetate]: 4.15 ± 0.29 µM.
